Experimental data taken from patent publication US10273221B2, “Microbiocidal heterobicyclic derivatives” (Syngenta Participations AG, priority 2015, dated 2019).

Experiments:
[1] = tested on: Botryotinia fuckeliana (Botrytis cinerea); assay: Botryotinia fuckeliana (Botrytis cinerea) / liquid culture (gray mould); format: cell-based; conditions: growth inhibition determined photometrically 3-4 days after application, vs untreated control, read-out: disease control
[2] = tested on: Fusarium culmorum; assay: microbe, parasite or virus in culture; format: cell-based; conditions: 72 h, read-out: disease control
[3] = tested on: Glomerella lagenarium (Colletotrichum lagenarium); assay: Glomerella lagenarium (Colletotrichum lagenarium) / liquid culture (anthracnose); format: cell-based; conditions: Colletotrichum orbiculare, growth inhibition measured photometrically 3-4 days after application, vs untreated control, read-out: disease control
[4] = tested on: Monographella nivalis (Microdochium nivale); assay: Monographella nivalis (Microdochium nivale) / liquid culture (foot rot cereals); format: cell-based; conditions: 96 h, growth inhibition determined photometrically 4-5 days after application, vs untreated control, read-out: disease control
[5] = tested on: Gaeumannomyces graminis; assay: Gaeumannomyces graminis / liquid culture (take-all of cereals); format: cell-based; conditions: growth inhibition determined photometrically 4-5 days after application, vs untreated control, read-out: disease control
[6] = tested on: Magnaporthe grisea (Pyricularia oryzae); assay: microbe, parasite or virus in culture; format: cell-based; conditions: 72 h, read-out: control of Magnaporthe grisea
[7] = tested on: Pyrenophora teres; assay: Pyrenophora teres / liquid culture (net blotch); format: cell-based; conditions: growth inhibition determined photometrically 3-4 days after application, vs untreated control
[8] = tested on: Sclerotinia sclerotiorum; assay: Sclerotinia sclerotiorum / liquid culture (cottony rot); conditions: 72 h, read-out: control of Sclerotinia sclerotiorum
Method: Sclerotinia sclerotiorum/Liquid Culture (Cottony Rot)
Mycelia fragments of a newly grown liquid culture of the fungus are directly mixed into nutrient broth (Vogels broth). After placing a (DMSO) solution of test compound into a microtiter plate (96-well format) the nutrient broth containing the fungal material is added. The test plates are incubated at 24° C. and the inhibition of growth is determined photometrically 3-4 days after application.

Row | SMILES | melting point [°C] | inhibition of growth at 200 ppm [1] [%] | inhibition of growth at 200 ppm [2] [%] | inhibition of growth at 200 ppm [3] [%] | inhibition of growth at 200 ppm [4] [%] | inhibition of growth at 200 ppm [5] [%] | inhibition of growth at 20 ppm [6] [%] | inhibition of growth at 20 ppm [7] [%] | inhibition of growth at 20 ppm [8] [%]
1 | Cc1cccc2c1ncn2C1=NC(C)(C)C(F)(F)c2ccccc21 | 142 to 149 |  |  |  |  |  |  |  | 
2 | CC1(C)N=C(n2cnc3ccccc32)c2cccc(F)c2C1(C)C [E-2] |  | ≥ 80 | ≥ 80 | ≥ 80 | ≥ 80 |  |  |  | 
3 | CC1(C)N=C(n2cnc3ccccc32)c2ccccc2C12CC2 [E-3, 1′-(benzimidazol-1-yl)-3′,3′-dimethyl-spiro(cyclopropane-1,4′-isoquinoline)] |  | ≥ 80 |  | ≥ 80 |  | ≥ 80 |  |  | 
4 | CC1(C)N=C(n2cnc3c(C(F)(F)F)cccc32)c2cccc(F)c2C1(C)C [E-5] |  | ≥ 80 |  | ≥ 80 | ≥ 80 |  | ≥ 80 | ≥ 80 | 
5 | COc1cccc2c1ncn2C1=NC(C)(C)C(C)(C)c2c(F)cccc21 [E-6] |  | ≥ 80 |  | ≥ 80 | ≥ 80 |  | ≥ 80 | ≥ 80 | 
6 | CC1(C)N=C(n2cnc3c(C4CC4)cccc32)c2cccc(F)c2C1(C)C [E-8] |  | ≥ 80 |  | ≥ 80 | ≥ 80 | ≥ 80 | ≥ 80 |  | 
7 | COC(=O)c1cccc2c1ncn2C1=NC(C)(C)C(C)(C)c2c(F)cccc21 [E-24] | 178 to 179 |  |  |  |  |  | ≥ 80 |  | 
8 | CC1(C)N=C(n2cnc3c(Cl)cccc32)c2ccccc2C1=O [E-29] |  | ≥ 80 |  |  |  |  |  |  | 
9 | Cc1ccc2c(ncn2C2=NC(C)(C)C(F)(F)c3ccccc32)c1Cl [E-31] |  | ≥ 80 | ≥ 80 | ≥ 80 | ≥ 80 | ≥ 80 | ≥ 80 |  | ≥ 80
10 | CC1(C)N=C(n2cnc3c(Cl)cccc32)c2ccc(Cl)cc2C1(F)F [E-37] | 197 to 200 | ≥ 80 |  |  | ≥ 80 | ≥ 80 | ≥ 80 |  | ≥ 80
11 | Cc1cccc2c1ncn2C1=NC(C)(C)Cc2c(Br)cccc21 [E-38] | 52 to 54 | ≥ 80 |  | ≥ 80 | ≥ 80 |  | ≥ 80 |  | ≥ 80
12 | CC1(C)N=C(n2cnc3cc(Cl)c(Cl)cc32)c2cccc(F)c2C1(C)C [E-39] | 126 to 127 | ≥ 80 |  | ≥ 80 | ≥ 80 |  | ≥ 80 |  | ≥ 80
13 | Cc1cccc2c1ncn2C1=NC(C)(C)Cc2c(Cl)cccc21 [E-40] |  | ≥ 80 |  | ≥ 80 | ≥ 80 |  | ≥ 80 |  | ≥ 80
14 | Cc1c(Br)ccc2c1ncn2C1=NC(C)(C)C(C)(C)c2c(F)cccc21 [E-41] | 122 to 124 | ≥ 80 | ≥ 80 | ≥ 80 | ≥ 80 | ≥ 80 | ≥ 80 |  | ≥ 80
15 | Cc1c(Cl)ccc2c1ncn2C1=NC(C)(C)C(C)(C)c2c(F)cccc21 [E-42] | 102 to 103 | ≥ 80 | ≥ 80 | ≥ 80 | ≥ 80 |  | ≥ 80 |  | ≥ 80
16 | Cc1cccc2c1ncn2C1=NC2(CCC2)Cc2ccccc21 [E-43] | 132 to 133 | ≥ 80 |  | ≥ 80 | ≥ 80 |  | ≥ 80 |  | ≥ 80
17 | Cc1cccc2c1ncn2C1=NCC(C)(C)c2ccccc21 [E-44] |  | ≥ 80 |  | ≥ 80 | ≥ 80 |  | ≥ 80 |  | ≥ 80
18 | Cc1cccc2c1ncn2C1=NC(C)(C)C(C)(C)c2c1ccc(Cl)c2F [E-45] | 147 to 151 | ≥ 80 | ≥ 80 | ≥ 80 | ≥ 80 |  | ≥ 80 |  | ≥ 80
19 | Cc1cccc2c1ncn2C1=NC(C)(C)C(C)(C)c2c1ccc(F)c2F [E-46] | 122 to 125 | ≥ 80 | ≥ 80 | ≥ 80 | ≥ 80 |  | ≥ 80 |  | ≥ 80
20 | Cc1cccc2c1ncn2C1=NC(C)(C)C(F)(F)c2cc(Cl)ccc21 [E-47] |  | ≥ 80 | ≥ 80 |  | ≥ 80 | ≥ 80 | ≥ 80 |  | 
21 | Cc1c(F)ccc2c1ncn2C1=NC(C)(C)C(F)(F)c2cc(Cl)ccc21 [E-48] |  | ≥ 80 | ≥ 80 |  | ≥ 80 | ≥ 80 | ≥ 80 |  | 
22 | Cc1ccc2c(ncn2C2=NC(C)(C)C(F)(F)c3cc(Cl)ccc32)c1C [E-49] |  | ≥ 80 | ≥ 80 | ≥ 80 | ≥ 80 | ≥ 80 | ≥ 80 |  | 
23 | CC1(C)N=C(n2cnc3c4c(ccc32)CCC4)c2cccc(F)c2C1(C)C [E-51] | 177 to 178 | ≥ 80 | ≥ 80 |  | ≥ 80 | ≥ 80 | ≥ 80 |  | 
24 | Cc1cccc2c1ncn2C1=NCC2(CCCCC2)c2ccccc21 [E-52] |  | ≥ 80 |  |  |  |  | ≥ 80 |  | 
25 | Cc1ccc2c(ncn2C2=NC3(CC3)C3(CC3)c3ccccc32)c1C [E-58] | 141 to 143 | ≥ 80 | ≥ 80 | ≥ 80 | ≥ 80 | ≥ 80 | ≥ 80 |  | ≥ 80
26 | Cc1cccc2c1ncn2C1=NC2(CC2)Cc2ccccc21 [E-59] |  | ≥ 80 | ≥ 80 | ≥ 80 | ≥ 80 | ≥ 80 | ≥ 80 |  | 
27 | Cc1cccc2c1ncn2C1=NC2(CC2)C2(CC2)c2ccccc21 [E-61] |  | ≥ 80 | ≥ 80 | ≥ 80 | ≥ 80 | ≥ 80 | ≥ 80 |  | ≥ 80
28 | Cc1cccc2c1ncn2C1=NC(C)(C)C(C)(C)c2c(F)cccc21 [Example 1] | 118 to 120 |  |  |  |  |  |  |  | 
